Kd data for six molecules are collected here from patent publication US20250115634A1, “LIGAND, METHOD FOR PREPARING SAME, AND USE THEREOF” (priority 2022, published 2025).

Experiment [1] deals with T1, ASGPR receptor (Mus musculus, UniProt P24721+P34927).
T1 construct: C57 mouse primary liver cells were isolated; endogenous in cells; host or cells: C57 mouse primary liver cells
T1 sequence (P34927 1-284): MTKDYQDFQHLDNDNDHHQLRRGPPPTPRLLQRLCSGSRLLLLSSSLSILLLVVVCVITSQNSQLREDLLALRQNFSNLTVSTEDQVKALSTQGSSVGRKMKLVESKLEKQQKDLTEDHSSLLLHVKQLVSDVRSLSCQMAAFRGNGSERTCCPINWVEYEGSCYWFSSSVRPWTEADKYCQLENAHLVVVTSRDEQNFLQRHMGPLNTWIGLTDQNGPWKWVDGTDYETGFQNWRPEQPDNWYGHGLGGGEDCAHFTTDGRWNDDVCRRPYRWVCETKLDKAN
T1 sequence (P24721 1-301): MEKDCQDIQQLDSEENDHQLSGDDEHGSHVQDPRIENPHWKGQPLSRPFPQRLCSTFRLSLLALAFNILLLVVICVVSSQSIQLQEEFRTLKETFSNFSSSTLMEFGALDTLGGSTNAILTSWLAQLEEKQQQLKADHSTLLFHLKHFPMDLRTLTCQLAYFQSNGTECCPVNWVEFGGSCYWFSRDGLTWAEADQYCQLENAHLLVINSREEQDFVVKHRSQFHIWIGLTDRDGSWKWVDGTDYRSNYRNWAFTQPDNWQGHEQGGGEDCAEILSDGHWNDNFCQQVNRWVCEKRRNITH
Nature of the experiment: Binding of Cy5-labelled ligands to ASGPR on primary mouse liver cells (Kd). The settings on record: C57 mouse primary liver cells, incubated 37° C. in the dark for 30 min, trypsin to remove surface fluorescence. Here is the method:
(§1) The binding rate of the ligand of the present disclosure to the ASGPR receptor of liver cancer cells was tested, with the ligand with hepatocellular ASGPR-targeting property, loaded in Inclisiran, a small interfering nucleic acid drug marketed by Alnylam, as a positive control (PC).
The ligand-receptor dissociation constant (Kd, which is the drug concentration required for half of the maximum effect, i.e. 50% of the receptors are occupied) was used as a measure of ligand-receptor binding capacity; and the lower the Kd value, the higher the binding capacity.
C57 mouse primary liver cells were isolated, and the cells were in a good state, had viability of 92%, and were at a density of 2×10^5 cells/400 μL.
The test compounds were dissolved with PBS and then diluted with complete medium for primary liver cells to various concentration gradients.
The cells was added with 100 μL of the test compound solution prepared according to the set concentration gradients (the test compounds was first prepared with PBS into a stock solution, which was then diluted to the set concentration gradients with complete medium) and incubated at 37° C. in the dark for 30 min.
After incubation, the cells were washed once with 500 μL of PBS.
The cells were added with typsin to remove fluorescence on the cell surface.
The cells were washed again with 500 μL of PBS and detected on machine.

The target of experiment [2] is T2, ASGPR receptor (Homo sapiens, UniProt P07306+P07307).
T2 construct: HepG2 cells grown to confluence of greater than 80%; endogenous in cells; host or cells: HepG2
T2 sequence (P07306 1-291): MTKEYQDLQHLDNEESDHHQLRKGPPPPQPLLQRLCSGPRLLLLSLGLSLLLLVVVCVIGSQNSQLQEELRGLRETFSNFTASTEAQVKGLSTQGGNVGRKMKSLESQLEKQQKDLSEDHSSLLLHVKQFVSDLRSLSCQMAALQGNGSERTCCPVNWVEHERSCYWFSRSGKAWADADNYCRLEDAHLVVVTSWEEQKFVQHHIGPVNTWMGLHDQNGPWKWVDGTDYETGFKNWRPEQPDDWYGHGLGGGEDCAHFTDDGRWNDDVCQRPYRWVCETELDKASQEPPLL
T2 sequence (P07307 1-311): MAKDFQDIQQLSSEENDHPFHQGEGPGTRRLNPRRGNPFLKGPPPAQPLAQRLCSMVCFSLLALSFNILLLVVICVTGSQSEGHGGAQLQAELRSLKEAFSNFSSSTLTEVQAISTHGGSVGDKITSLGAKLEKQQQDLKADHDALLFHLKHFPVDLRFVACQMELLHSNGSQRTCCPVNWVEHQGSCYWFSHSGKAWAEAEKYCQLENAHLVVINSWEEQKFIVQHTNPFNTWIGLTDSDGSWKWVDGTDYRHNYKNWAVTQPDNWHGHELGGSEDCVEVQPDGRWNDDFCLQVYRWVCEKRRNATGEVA
Nature of the experiment: Binding of Cy5-labelled ligands to ASGPR on HepG2 cell line (Kd). The settings on record: HepG2 cells, incubated at room temperature in the dark for 30 min. As for the experimental part: as §1
The ligand-receptor dissociation constant (Kd, which is the drug concentration required for half of the maximum effect, i.e. 50% of the receptors are occupied) was used as a measure of ligand-receptor binding capacity, and the lower the Kd value, the higher the binding capacity.
• 1. HepG2 cells grown to confluence of greater than 80% and in a good state were digested, centrifuged and counted. • 2. The test compounds were diluted with PBS to various concentration gradients. • 3. The cells were washed once with PBS, added with 100 μL of the prepared compounds, and incubated at room temperature in the dark for 30 min. • 4. After incubation, the cells were washed twice with 1 mL of PBS and detected on machine.

Turning to `CC[N+]1=C(/C=C/C=C/C=C2/c3ccccc3N(CCCCCC(=O)NCCNC(=O)CCCCCCCCCCCNC(COCCC(=O)NCCCNC(=O)CCCCOC3OC(CO)C(O)C(O)C3NC(C)=O)(COCCC(=O)NCCCNC(=O)CCCCOC3OC(CO)C(O)C(O)C3NC(C)=O)COCCC(=O)NCCCNC(=O)CCCCOC3OC(CO)C(O)C(O)C3NC(C)=O)C2(C)C)C(C)(C)c2ccccc21` (centres unmarked) [PC-Cy5, reference compound], the Kd on ASGPR receptor [1] amounted to 0.408 nM; on ASGPR receptor [2], 40.2 nM.
The molecule `CC[N+]1=C(/C=C/C=C/C=C2/c3ccccc3N(CCCCCC(=O)NCCNC(=O)CCCCCCCCCCC(=O)N3C[C@H](OCC(=O)NCCOCCOC4OC(CO)C(O)C(O)C4NC(C)=O)C[C@H]3C(=O)NC(C)(COCCC(=O)NCCOCCOC3OC(CO)C(O)C(O)C3NC(C)=O)COCCC(=O)NCCOCCOC3OC(CO)C(O)C(O)C3NC(C)=O)C2(C)C)C(C)(C)c2ccccc21` (some centres unmarked) [TC10A-Cy5] yielded a Kd at ASGPR receptor [1] of 0.867 nM.
Same read-out and setting: next, `CC[N+]1=C(/C=C/C=C/C=C2/c3ccccc3N(CCCCCC(=O)NCCCC(=O)CCCCCCCCCCC(=O)N3C[C@H](OCC(=O)NCCOCCOCCOC4OC(CO)C(O)C(O)C4NC(C)=O)C[C@H]3C(=O)NC(COCCC(=O)NCCOCCOCCOC3OC(CO)C(O)C(O)C3NC(C)=O)COCCC(=O)NCCOCCOCCOC3OC(CO)C(O)C(O)C3NC(C)=O)C2(C)C)C(C)(C)c2ccccc21` (some centres unmarked) [TC12A-Cy5]: 0.696 nM.
The same measure, in the same setting: for `CC[N+]1=C(/C=C/C=C/C=C2/c3ccccc3N(CCCCCC(=O)NCCNC(=O)CCC(=O)Nc3cc(C(=O)NCCOCCOC4OC(CO)C(O)C(O)C4NC(C)=O)cc(C(=O)Nc4cc(C(=O)NCCOCCOC5OC(CO)C(O)C(O)C5NC(C)=O)cc(C(=O)NCCOCCOC5OC(CO)C(O)C(O)C5NC(C)=O)c4)c3)C2(C)C)C(C)(C)c2ccccc21` (centres unmarked) [TC17A-Cy5] the value was 1.26 nM.
With `CC[N+]1=C(/C=C/C=C/C=C2/c3ccccc3N(CCCCCC(=O)NCCNC(=O)CCNC(=O)[C@H](CNC(=O)C(C)(COCC(=O)NCCOCCOC3OC(CO)C(O)C(O)C3NC(C)=O)COCC(=O)NCCOCCOC3OC(CO)C(O)C(O)C3NC(C)=O)NC(=O)C(C)(COCC(=O)NCCOCCOC3OC(CO)C(O)C(O)C3NC(C)=O)COCC(=O)NCCOCCOC3OC(CO)C(O)C(O)C3NC(C)=O)C2(C)C)C(C)(C)c2ccccc21` (some centres unmarked) [TEC02A-Cy5], the equilibrium dissociation constant (Kd) was determined as 0.198 nM at ASGPR receptor [1] and 20.7 nM at ASGPR receptor [2].
Regarding `CC[N+]1=C(/C=C/C=C/C=C2/c3ccccc3N(CCCCCC(=O)NCCNC(=O)CCCCCCCCCCCNC(=O)[C@H](CNC(=O)C(C)(COCC(=O)NCCOCCOC3OC(CO)C(O)C(O)C3NC(C)=O)COCC(=O)NCCOCCOC3OC(CO)C(O)C(O)C3NC(C)=O)NC(=O)C(C)(CCCC(=O)NCCOCCOC3OC(CO)C(O)C(O)C3NC(C)=O)COCC(=O)NCCOCCOC3OC(CO)C(O)C(O)C3NC(C)=O)C2(C)C)C(C)(C)c2ccccc21` (some centres unmarked) [TEC06A-Cy5], binding at ASGPR receptor [1] was put at a Kd of 0.496 nM. This lies in the sub-nanomolar range.
